{"source": "patent US20220306630A1", "about": "“AGONISTS OF ROR GAMMAt” (BRISTOL-MYERS SQUIBB COMPANY, priority 2019, published 2022)", "data": [{"molecular_target": "T1, RORgT (Homo sapiens, UniProt P51449)", "T1 construct": "Gal4 (fusion partner); expressed in transfected cells; host or cells: engineered Jurkat cells (Jurkat pEx/Gal/hRORγ CLBD/HYG pG5luc/blast)", "T1 sequence (P51449 267-516)": "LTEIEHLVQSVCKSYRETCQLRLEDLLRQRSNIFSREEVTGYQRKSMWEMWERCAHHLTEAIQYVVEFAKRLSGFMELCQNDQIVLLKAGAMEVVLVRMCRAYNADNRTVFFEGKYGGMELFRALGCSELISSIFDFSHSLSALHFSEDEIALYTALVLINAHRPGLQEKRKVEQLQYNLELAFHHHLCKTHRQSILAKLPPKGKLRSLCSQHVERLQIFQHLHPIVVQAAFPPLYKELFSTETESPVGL", "experiment": "RORgT Gal4 Luciferase Reporter Gene Assay", "format": "cell-based", "conditions": "engineered Jurkat cells overexpressing RORgT (LBD or full length) with Gal4 Luc reporter; 18 hours at 37° C.; 40 μM to 0.67 nM; read-out: RORg_GAL4 EC50", "description": "The compound and the cells were incubated for 18 hours at 37° C. in a cell culture incubator. Cells were then lysed with 15 uL of Steady-Glo Luciferase Assay reagent (Promega EZ550), followed by centrifuging the assay plates at 1500 RPM for 1 minute. Subsequently, the plates were read on the Envision (PerkinElmer). The inhibition of constitutive activity of RORgT achieved by graded concentrations of compound was calculated as a percentage of the luminescence signal window reduction over a control compound.", "units": {"EC50": "nM"}, "values": [{"smiles": "COc1ccc(Oc2c(Cl)ccc(C(=O)NCc3ccc(S(N)(=O)=O)nc3)c2Cl)cc1C(C)C", "note": "[Example 101]", "EC50": 14}, {"smiles": "CNC(=O)c1ccc(CNC(=O)c2ccc(Cl)c(Oc3ccc(OC)c(C(C)C)c3)c2Cl)cc1", "note": "[Example 102]", "EC50": 455}, {"smiles": "COc1ccc(Oc2c(Cl)ccc(C(=O)N(C)CC3CCN(S(N)(=O)=O)CC3)c2Cl)cc1C(C)C", "note": "[Example 103]", "EC50": 50}, {"smiles": "COc1ccc(Oc2c(Cl)ccc(C(=O)N(C)CC3CCN(S(C)(=O)=O)CC3)c2Cl)cc1C(C)C", "note": "[Example 104]", "EC50": 15}, {"smiles": "COc1ccc(Oc2c(Cl)ccc(C(=O)NC(C)c3ccc(S(C)(=O)=O)cc3)c2Cl)cc1C(C)C", "note": "(stereo not drawn) [Example 105]", "EC50": 30}, {"smiles": "COc1ccc(Oc2c(Cl)ccc(NC(=O)CN3CCN(S(C)(=O)=O)CC3)c2Cl)cc1C(C)C", "note": "[Example 106]", "EC50": 32}, {"smiles": "COc1ccc(Oc2c(Cl)ccc(C(=O)N3CCC4(CCN(S(C)(=O)=O)CC4)C3)c2Cl)cc1C(C)C", "note": "[Example 107]", "EC50": 35}, {"smiles": "COc1ccc(Oc2c(Cl)ccc(C(=O)N3CCc4cc(N)ccc4C3)c2Cl)cc1C(C)C", "note": "[Example 108]", "EC50": 766}, {"smiles": "COc1ccc(Oc2c(Cl)ccc(C(=O)N3CCC4(CC3)CN(S(C)(=O)=O)C4)c2Cl)cc1C(C)C", "note": "[Example 109]", "EC50": 17}, {"smiles": "COc1ccc(Oc2c(Cl)ccc(C(=O)N(C)Cc3ccc(S(N)(=O)=O)cc3)c2Cl)cc1C(C)C", "note": "[Example 110]", "EC50": 39}, {"smiles": "COC(=O)N1CCC(CNC(=O)c2ccc(Cl)c(Oc3ccc(OC)c(C(C)C)c3)c2Cl)CC1", "note": "[Example 111]", "EC50": 936}, {"smiles": "CC(C)c1cc(F)cc(Oc2c(Cl)ccc(C(=O)N3CCC4(CC3)CN(S(C)(=O)=O)C4)c2Cl)c1", "note": "[Example 112]", "EC50": 14}, {"smiles": "CC(C)c1cc(Oc2c(Cl)ccc(C(=O)NCC3CCN(S(C)(=O)=O)CC3)c2Cl)ccc1F", "note": "[Example 113]", "EC50": 27}, {"smiles": "CC(C)c1cc(Oc2c(Cl)ccc(C(=O)NCc3ccc(S(N)(=O)=O)cc3)c2Cl)ccc1F", "note": "[Example 114]", "EC50": 5.2}, {"smiles": "CCS(=O)(=O)N1CCC(CNC(=O)c2ccc(Cl)c(Oc3cc(F)cc(C(C)C)c3)c2Cl)CC1", "note": "[Example 115]", "EC50": 25}, {"smiles": "CC(C)c1cc(F)cc(Oc2c(Cl)ccc(C(=O)NCC3CCN(S(=O)(=O)C(C)C)CC3)c2Cl)c1", "note": "[Example 116]", "EC50": 350}, {"smiles": "COc1ncc(Oc2c(Cl)ccc(C(=O)NCc3ccc(S(N)(=O)=O)cc3)c2Cl)cc1C(C)C", "note": "[Example 117]", "EC50": 6}, {"smiles": "COc1ncc(Oc2c(Cl)ccc(C(=O)N3CCC4(CC3)CN(S(C)(=O)=O)C4)c2Cl)cc1C(C)C", "note": "[Example 118]", "EC50": 61}, {"smiles": "COc1ncc(Oc2c(Cl)cc(NC(=O)CC3CCN(S(=O)(=O)C4CC4)CC3)cc2Cl)cc1C(C)C", "note": "[Example 119]", "EC50": 11}, {"smiles": "CCS(=O)(=O)N1CCC(CC(=O)Nc2cc(Cl)c(Oc3cnc(OC)c(C(C)C)c3)c(Cl)c2)CC1", "note": "[Example 120]", "EC50": 37}, {"smiles": "COc1ncc(Oc2c(Cl)cc(NC(=O)CC3CCN(S(N)(=O)=O)CC3)cc2Cl)cc1C(C)C", "note": "[Example 121]", "EC50": 13}, {"smiles": "CC(C)c1cc(F)cc(Oc2c(Cl)ccc(C(=O)NCc3ccc(S(C)(=O)=O)cc3)c2Cl)c1", "note": "[Example 122]", "EC50": 3.6}, {"smiles": "COc1ncc(Oc2c(Cl)ccc(C(=O)NCc3ccc(S(C)(=O)=O)cc3)c2Cl)cc1C(C)C", "note": "[Example 123]", "EC50": 5.4}, {"smiles": "CCS(=O)(=O)N1CC2(CCN(C(=O)c3ccc(Cl)c(Oc4cc(F)cc(C(C)C)c4)c3Cl)CC2)C1", "note": "[Example 124]", "EC50": 121}, {"smiles": "CC(C)c1cc(F)cc(Oc2c(Cl)ccc(C(=O)N3CCC4(CC3)CN(S(=O)(=O)C3CC3)C4)c2Cl)c1", "note": "[Example 125]", "EC50": 548}, {"smiles": "COc1ncc(Oc2c(Cl)cc(NC(=O)CC3CCN(S(C)(=O)=O)CC3)cc2Cl)cc1C1CC1", "note": "[Example 126]", "EC50": 3.2}, {"smiles": "COc1ncc(Oc2c(Cl)cc(NC(=O)CC3CCN(S(=O)(=O)CCl)CC3)cc2Cl)cc1C(C)C", "note": "[Example 127]", "EC50": 35}, {"smiles": "CC(C)c1cc(F)cc(Oc2c(Cl)ccc(C(=O)NCc3cnn(S(C)(=O)=O)c3)c2Cl)c1", "note": "[Example 128]", "EC50": 139}, {"smiles": "COc1ncc(Oc2c(Cl)ccc(NC(=O)CC3CCN(S(C)(=O)=O)CC3)c2Cl)cc1C(C)C", "note": "[Example 129]", "EC50": 11}, {"smiles": "CC(C)c1cc(F)cc(Oc2c(Cl)ccc(NC(=O)CC3CCN(S(C)(=O)=O)CC3)c2Cl)c1", "note": "[Example 130]", "EC50": 5.5}, {"smiles": "CC(C)c1cc(Oc2c(Cl)ccc(C(=O)NCc3ccc(S(C)(=O)=O)cc3)c2Cl)ccc1F", "note": "[Example 131]", "EC50": 2.7}, {"smiles": "CC(C)c1cc(Oc2c(Cl)ccc(C(=O)N3CCC4(CC3)CN(S(C)(=O)=O)C4)c2Cl)ccc1F", "note": "[Example 132]", "EC50": 6.3}, {"smiles": "C=C(c1cc(Oc2c(Cl)cc(NC(=O)CC3CCN(S(C)(=O)=O)CC3)cc2Cl)cnc1OC)C(F)(F)F", "note": "[Example 133]", "EC50": 4.6}, {"smiles": "COc1ncc(Oc2c(Cl)cc(NC(=O)CC3CCN(S(C)(=O)=O)CC3)cc2Cl)cc1C(C)C(F)(F)F", "note": "(stereo not drawn) [Example 134]", "EC50": 3.2}, {"smiles": "COc1ncc(Oc2c(Cl)ccc(C(=O)NC(C)c3ccc(S(C)(=O)=O)cc3)c2Cl)cc1C(C)C", "note": "(stereo not drawn) [Example 135]", "EC50": 11}, {"smiles": "CC(C)c1cc(F)cc(Oc2c(Cl)ccc(C(=O)NC(C)c3ccc(S(C)(=O)=O)cc3)c2Cl)c1", "note": "(stereo not drawn) [Example 136]", "EC50": 13}, {"smiles": "COc1ncc(Oc2c(Cl)ccc(C(=O)NC(C)c3ccc(S(C)(=O)=O)cc3)c2Cl)cc1C(C)C", "note": "(stereo not drawn) [Example 137]", "EC50": 14}, {"smiles": "COc1ncc(Oc2c(Cl)ccc(C(=O)NCc3cccc(S(C)(=O)=O)c3)c2Cl)cc1C(C)C", "note": "[Example 138]", "EC50": 225}, {"smiles": "CC(C)c1cc(F)cc(Oc2c(Cl)ccc(C(=O)NCc3cccc(S(C)(=O)=O)c3)c2Cl)c1", "note": "[Example 139]", "EC50": 187}, {"smiles": "CC(C)c1cc(F)cc(Oc2c(Cl)ccc(C(=O)NC(C)c3ccc(S(C)(=O)=O)cc3)c2Cl)c1", "note": "(stereo not drawn) [Example 140]", "EC50": 9.3}, {"smiles": "COc1ncc(Oc2c(Cl)ccc(NC(=O)Cc3cccc(S(C)(=O)=O)c3)c2Cl)cc1C(C)C", "note": "[Example 141]", "EC50": 182}, {"smiles": "CC(C)c1cc(F)cc(Oc2c(Cl)ccc(C(=O)NC(C)c3ccc(S(C)(=O)=O)cc3)c2Cl)c1", "note": "(stereo not drawn) [Example 142]", "EC50": 71}, {"smiles": "COc1ncc(Oc2c(Cl)ccc(C(=O)NC(C)c3ccc(S(C)(=O)=O)cc3)c2Cl)cc1C(C)C", "note": "(stereo not drawn) [Example 143]", "EC50": 11.5}, {"smiles": "COc1ncc(Oc2c(Cl)ccc(CNC(=O)C3CCN(S(C)(=O)=O)CC3)c2Cl)cc1C(C)C", "note": "[Example 144]", "EC50": 6.6}, {"smiles": "COc1ncc(Oc2c(Cl)ccc(CNC(=O)c3ccc(S(C)(=O)=O)cc3)c2Cl)cc1C(C)C", "note": "[Example 145]", "EC50": 8.5}, {"smiles": "COc1ncc(Oc2c(Cl)ccc(CNC(=O)c3ccc(S(N)(=O)=O)cc3)c2Cl)cc1C(C)C", "note": "[Example 146]", "EC50": 28}, {"smiles": "COc1ncc(Oc2c(Cl)ccc(CNC(=O)C3CCN(S(N)(=O)=O)CC3)c2Cl)cc1C(C)C", "note": "[Example 147]", "EC50": 9.6}, {"smiles": "CC(C)c1cc(F)cc(Oc2c(Cl)ccc(CNC(=O)C3CCN(S(C)(=O)=O)CC3)c2Cl)c1", "note": "[Example 148]", "EC50": 4}, {"smiles": "CC(C)c1cc(F)cc(Oc2c(Cl)ccc(CNC(=O)c3ccc(S(C)(=O)=O)cc3)c2Cl)c1", "note": "[Example 149]", "EC50": 15}, {"smiles": "CC(C)c1cc(F)cc(Oc2c(Cl)ccc(CNC(=O)c3ccc(S(N)(=O)=O)cc3)c2Cl)c1", "note": "[Example 150]", "EC50": 8.2}, {"smiles": "CC(C)c1cc(F)cc(Oc2c(Cl)ccc(CNC(=O)C3CCN(S(N)(=O)=O)CC3)c2Cl)c1", "note": "[Example 151]", "EC50": 9.9}, {"smiles": "COc1ncc(Oc2c(Cl)ccc(C(=O)NCc3ccc(S(C)(=O)=O)cc3)c2Cl)cc1C(C)(C)F", "note": "[Example 152]", "EC50": 2.5}, {"smiles": "COc1ncc(Oc2c(Cl)ccc(C(=O)NCC3CCN(S(C)(=O)=O)CC3)c2Cl)cc1C(C)(C)F", "note": "[Example 153]", "EC50": 195}, {"smiles": "COc1ncc(Oc2c(Cl)ccc(C(=O)NCc3ccc(S(N)(=O)=O)cc3)c2Cl)cc1C(C)(C)F", "note": "[Example 154]", "EC50": 6.6}, {"smiles": "COc1ccc(Oc2c(Cl)cc(C(=O)NCc3cnc(C)cn3)cc2Cl)cc1C(C)C", "note": "[Example 155]", "EC50": 4750}, {"smiles": "COc1ccc(Oc2c(Cl)cc(C(=O)NCc3ccc(S(N)(=O)=O)cc3)cc2Cl)cc1C(C)C", "note": "[Example 156]", "EC50": 1930}, {"smiles": "CCS(=O)(=O)c1ccccc1CNC(=O)c1cc(Cl)c(Oc2ccc(OC)c(C(C)C)c2)c(Cl)c1", "note": "[Example 157]", "EC50": 939}, {"smiles": "COc1ccc(Oc2c(Cl)cc(C(=O)NCc3ccc(S(C)(=O)=O)cc3)cc2Cl)cc1C(C)C", "note": "[Example 158]", "EC50": 499}, {"smiles": "CCS(=O)(=O)N[C@@H]1CCN(CC(=O)Nc2cc(Cl)c(Oc3ccc(OC)c(C(C)C)c3)c(Cl)c2)C1", "note": "[Example 159]", "EC50": 377}, {"smiles": "COc1ccc(Oc2c(Cl)cc(NC(=O)CN3CC[C@@H](NS(C)(=O)=O)C3)cc2Cl)cc1C(C)C", "note": "[Example 160]", "EC50": 325}, {"smiles": "COc1ccc(Oc2c(Cl)cc(NC(=O)CN3CC[C@@H](NS(=O)(=O)C4CC4)C3)cc2Cl)cc1C(C)C", "note": "[Example 161]", "EC50": 2330}, {"smiles": "CCS(=O)(=O)NC1CN(CC(=O)Nc2cc(Cl)c(Oc3ccc(OC)c(C(C)C)c3)c(Cl)c2)C1", "note": "[Example 162]", "EC50": 220}, {"smiles": "COc1ccc(Oc2c(Cl)cc(NC(=O)CN3CC(NS(C)(=O)=O)C3)cc2Cl)cc1C(C)C", "note": "[Example 163]", "EC50": 340}, {"smiles": "CCS(=O)(=O)N[C@H]1CCN(CC(=O)Nc2cc(Cl)c(Oc3ccc(OC)c(C(C)C)c3)c(Cl)c2)C1", "note": "[Example 164]", "EC50": 80}, {"smiles": "COc1ccc(Oc2c(Cl)cc(NC(=O)CN3CC[C@H](NS(C)(=O)=O)C3)cc2Cl)cc1C(C)C", "note": "[Example 165]", "EC50": 182}, {"smiles": "COc1ccc(Oc2c(Cl)cc(NC(=O)CN3CCC[C@@H](NS(=O)(=O)C4CC4)C3)cc2Cl)cc1C(C)C", "note": "[Example 166]", "EC50": 424}]}]}
